System: esophagogastric junction adenocarcinoma patient-derived xenograft (PDX)
Assay: Patient-derived xenograft (PDX) of esophagogastric junction adenocarcinoma in NodScid mice supplemented with PBMCs from the same patient (double autologous)
Format: in vivo, NodScid mice (human tumor and PBMCs)
Conditions: PDX SC in NodScid mice + patient PBMCs; Compound 4 70 mg/kg IV and/or Keytruda 6 mg/kg IP on days 0, 5 and 11; treatment started at ~160 mm^3; sacrificed on day 18
Excerpt: Patient-derived xenograft (PDX) of esophagogastric junction adenocarcinoma biopsy subcutaneous (SC) implanted into NodScid mice. At the first day of treatment peripheral blood mononuclear cells (PBMCs) from the same patient were intravenous injected to the mice (double autologous).
Fresh human primary esophagogastric junction adenocarcinoma biopsy was subcutaneously (SC) implanted into NSG mice (P0).
Subcutaneous implantation of human primary tumor biopsy into NodScid mice.
The tumor (P3) was extracted from the mice, measured, cut into small pieces of 1-2 mm and transferred into the gentleMACS Tube containing the sterile saline. […] Animals were observed and monitored for any discomfort and immobility day by day.
Isolation of human PBMCs: Human PBMCs were isolated from heparinized venous blood samples of the same esophagus adenocarcinoma patient by density gradient centrifugation method using Ficol Histopaque (Sigma). […] The total cell number and the number of viable cells were evaluated. […] On the day of injection, the cells were thawed, washed twice in order to dilute possible DMSO residues by the addition of PBS and centrifugation (600 g for 10 minutes, RT) and viable cells were counted. […]
The length (l) and the width (w) of the tumors were measured 4-5 times a week and the volumes of the tumors were calculated as follows: v=lw^2/2. […]

Oc1cc(CNC(=S)/C=C/c2ccc(O)c(O)c2Br)cc(O)c1O [Compound 4] was tested, and the “Tumor response / tumor progression (tumor volume, FIG. 1)” value was “no response”.
